Results as given in patent US10822337B2, “TGF-β inhibitorC” (Rigel Pharmaceuticals, Inc., priority 2015, dated 2020).
pIC50: −log10 of the molar value.

How the values were obtained:
[1] = system: GDF8 signaling (GDF pSMAD, MPC11); test: AlphaScreen SureFire SMAD3 (p-Ser423/425) assay, inhibition of GDF8 signaling; type: cell-based; conditions: Mus musculus, MPC-11, p-SMAD-3 (Ser423/425) in cell lysate after GDF8 stimulation
Excerpt: (§1) Example 2: AlphaScreen® SureFire® SMAD3 (p-Ser423/425) Assay
(§2) The p-SMAD-3 (Ser423/425) SureFire® assay has been designed to measure the phosphorylation of endogenous cellular p-SMAD-3 (Ser423/425) in cell lysates and is a system for the screening of both modulators of receptor activation (e.g. agonists and antagonists) as well as agents acting intracellularly, such as small molecule inhibitors of upstream events. The assay will measure p-SMAD-3 (Ser423/425) activation by either cloned or endogenous receptors, and can be applied to primary cells.
(§3) 1× Lysis buffer: 1 ml of 5× Lysis buffer was diluted with 4 ml of sterile water. After dilution, excess 1× Lysis buffer can be frozen and thawed up to 5 times without loss in activity.
(§4) P-SMAD-3 (Ser423/425) SureFire® Assay Protocols
(§5) Step A: Preparation of Buffers
(§6) Activation buffer: The buffer was warmed slowly to 37° C. and gently mixed to re-suspend. Activation buffer can be stored at room temperature with no loss in activity.
(§7) Reaction buffer: The buffer was kept at 4° C. while in use.
(§8) AlphaScreen® Protein A IgG Kit: The kit was stored at 4° C. in the dark.
(§9) Reaction buffer+Activation buffer+AlphaScreen® Acceptor beads: Reaction buffer (40 parts), Activation Buffer (10 parts) and Acceptor beads (1 part) were mixed and the mixture was stored at room temperature and used the same day. Mixture was added to 384-well plates; excess mixturewas discarded.
(§10) Dilution buffer+AlphaScreen® Donor beads: Dilution buffer (20 parts) and Donor beads (1 part) were mixed and the mixture was stored at room temperature and used the same day. Excess mixture was discarded.
(§11) Assay control samples: After reconstitution in 250 μl of water, lysates were at −20° C. in single use aliquots.
(§12) Step B: Preparation of Samples and Cells
(§13) 96-well Assay Protocol for 293FT and RMS13 adherent cells can be carried out manually or in high throughput with liquid handling robots.
(§14) The cells (80 μL of cells for 96 well plates) were plated in collagen coated tissue culture plates in RPMI or FreeStyle medium (Invitrogen) and incubated overnight. For manual analysis, 6 plates for GDF8, 6 plates for TGFβ, and optionally 6 plates for Alk5ca(ALKS constitutively active) were used.
(§15) The compound dilution plates were prepared as follows: 12 μL of DMSO was transferred into first column of 96-well plate, and 16 μL of DMSO was transferred into columns 2-12 of the 96-well plate. 12 μL of compound solution was transferred into first column of the DMSO-containing 96-well plate. Three-fold dilution was performed up to column 10 of the DMSO-containing 96-well plate.
(§16) Step C: Treatment and Analysis
(§17) The plate containing cells were treated with compounds for about 10 minutes, and then ligand was added. GDF8 or TGFb was added to plates to stimulate. 293FL cells were stimulatedfor 90 minutes at 37° C.; and RMS13 cells were stimulated for 60 minutes at 37° C. The medium was then removed from the cells, and 1× Lysis Buffer (about 25 μL) was added and the plate was gently agitated on plate shaker for 5-10 minutes.
(§18) The lysate (5 μL) was then placed into 384-well shallow plates avoiding the generation of bubbles. To this, the Reaction Buffer+Activation Buffer+AlphaScreen® Acceptor beadsmixture (5 μL) was added. The plate was sealed with adhesive cover and shielded from light (e.g., with metal foil), and agitated gently on plate shaker for 2 hours at room temperature.
(§19) Dilution buffer+AlphaScreen® Donor beads (2 μL) was then added, and the plate was intubated on the plate shaker for an additional 1½ hours. After completion, the plate was read on Synergy-4 or Enspire plate reader, using AlphaScreen® pSMAD3® settings.
(§20) Representative results for inhibition of GDF8 (data=GDF pSMAD (MPC11) (μM)) and TGF-β (data=TGF-β pSMAD (MPC-11) (μM)) signaling are shown in Table 1: […]

[2] = system: TGF-β signaling (TGF-β pSMAD, MPC-11); test: AlphaScreen SureFire SMAD3 (p-Ser423/425) assay, inhibition of TGF-β signaling; type: cell-based; conditions: Mus musculus, p-SMAD-3 (Ser423/425) in cell lysate after TGF-β stimulation
Excerpt: as §1, §2, §3, §4, §5, §6, §7, §8, §9, §10, §11, §12, §13, §14, §15, §16, §17, §18, §19, §20

| Compound | pIC50 [1] | pIC50 [2] |
| --- | --- | --- |
| Fc1cc(F)c(-c2nn3c(c2-c2ccc4[nH]ncc4c2)CCC3)cc1Cl [Compound 186, 5-(2-(5-Chloro-2,4-difluorophenyl)-5,6-dihydro-4H-pyrrolo[1,2-b]pyrazol-3-yl)-1H-indazole] | 6.98 | 6.46 |
| Cn1cnc2ccc(-c3c(-c4ccc(F)cc4)nn4c3CCC4)cc21 [Compound 13, 6-(2-(4-Fluorophenyl)-5,6-dihydro-4H-pyrrolo[1,2-b]pyrazol-3-yl)-1-methyl-1H-benzo[d]imidazole] | 7.10 | 6.74 |
| FC(F)(F)c1cccc(-c2nn3c(c2-c2ccc4ncsc4c2)OCC3)c1 [Compound 62, 7-(Benzo[d]thiazol-6-yl)-6-(3-trifluoromethylphenyl)-2,3-dihydropyrazolo[5,1-b]oxazole] | 6.57 | 6.10 |
| Fc1ccc(-c2nn3c(c2-c2ccc4nccnc4c2)OCC3)cc1 [Compound 70, 6-(4-Fluorophenyl)-7-(quinoxalin-6-yl)-2,3-dihydropyrazolo[5,1-b]oxazole] | 6.40 | 5.86 |
| Cc1cccc(-c2nn3c(c2-c2ccc4nccnc4c2)CCC3)c1 [Compound 54, 6-(2-(m-Tolyl)-5,6-dihydro-4H-pyrrolo[1,2-b]pyrazol-3-yl)quinoxaline] | 7.22 | 6.69 |
| Cn1cnc2ccc(-c3c(-c4cccc(C(F)(F)F)c4)nn4c3CCC4)cc21 [Compound 33, 1-Methyl-6-(2-(3-trifluoromethylphenyl)-5,6-dihydro-4H-pyrrolo[1,2-b]pyrazol-3-yl)-1H-benzo[d]imidazole] | 7.67 | 7.38 |
| Fc1cccc(-c2nn3c(c2-c2ccc4nccnc4c2)CCC3)c1 [Compound 82, 6-(2-(3-Fluorophenyl)-5,6-dihydro-4H-pyrrolo[1,2-b]pyrazol-3-yl)quinoxaline] | 6.48 | 5.71 |
| FC(F)(F)Oc1cccc(-c2nn3c(c2-c2ccc4ncnn4c2)CCC3)c1 [Compound 127, 6-(2-(3-Trifluoromethoxyphenyl)-5,6-dihydro-4H-pyrrolo[1,2-b]pyrazol-3-yl)-[1,2,4]triazolo[1,5-a]pyridine] | 7.44 | 7.15 |
| Cn1cnc2ccc(-c3c(-c4ccc(F)cc4F)nn4c3CCC4)cc21 [Compound 93, 6-(2-(2,4-Difluorophenyl)-5,6-dihydro-4H-pyrrolo[1,2-b]pyrazol-3-yl)-1-methyl-1H-benzo[d]imidazole] | 7.11 | 6.50 |
| Cc1c(F)ccc(-c2nn3c(c2-c2ccc4ncccc4c2)CCC3)c1F [Compound 171, 6-(2-(2,4-Difluoro-3-methylphenyl)-5,6-dihydro-4H-pyrrolo[1,2-b]pyrazol-3-yl)quinoline] | 5.91 | 5.74 |
| Fc1ccc(-c2nn3c(c2-c2ccc4ncnn4c2)CCC3)cc1 [Compound 103, 6-(2-(4-Fluorophenyl)-5,6-dihydro-4H-pyrrolo[1,2-b]pyrazol-3-yl)-[1,2,4]triazolo[1,5-a]pyridine] | 6.88 | 6.28 |
| Fc1ccc(-c2nn3c(c2-c2ccc4ncnn4c2)CCC3)cc1F [Compound 110, 6-(2-(3,4-Difluorophenyl)-5,6-dihydro-4H-pyrrolo[1,2-b]pyrazol-3-yl)-[1,2,4]triazolo[1,5-a]pyridine] | 6.90 | 6.23 |
| Cc1cccc(-c2nn3c(c2-c2ccc4[nH]ncc4c2)CCC3)c1 [Compound 7, 5-(2-(m-Tolyl)-5,6-dihydro-4H-pyrrolo[1,2-b]pyrazol-3-yl)-1H-indazole] | 7.82 | 7.40 |
| Cc1cc(-c2nn3c(c2-c2ccc4nc[nH]c4c2)CCC3)ccc1F [Compound 9, 6-(2-(4-Fluoro-3-methylphenyl)-5,6-dihydro-4H-pyrrolo[1,2-b]pyrazol-3-yl)-1H-benzo[d]imidazole] | 7.29 | 6.82 |
| Fc1c(Cl)cccc1-c1nn2c(c1-c1ccc3ncnn3c1)CCC2 [Compound 141, 6-(2-(3-Chloro-2-fluorophenyl)-5,6-dihydro-4H-pyrrolo[1,2-b]pyrazol-3-yl)-[1,2,4]triazolo[1,5-a]pyridine] | 6.68 | 6.15 |

More lines, in order of rising pIC50 [1], values ahead:

| pIC50 [1] | pIC50 [2] | Compound |
| --- | --- | --- |
| 5.98 | 5.56 | Fc1ccc(-c2nn3c(c2-c2ccc4ncccc4c2)CCC3)cc1Cl [Compound 146, 6-(2-(3-Chloro-4-fluorophenyl)-5,6-dihydro-4H-pyrrolo[1,2-b]pyrazol-3-yl)quinoline] |
| 6.06 | 5.28 | Fc1ccc(F)c(-c2nn3c(c2-c2ccc4ncccc4c2)CCC3)c1 [Compound 196, 6-(2-(2,5-Difluorophenyl)-5,6-dihydro-4H-pyrrolo[1,2-b]pyrazol-3-yl)quinoline] |
| 6.14 | 5.83 | Fc1c(Cl)cccc1-c1nn2c(c1-c1ccc3[nH]ncc3c1)CCC2 [Compound 138, 5-(2-(3-Chloro-2-fluorophenyl)-5,6-dihydro-4H-pyrrolo[1,2-b]pyrazol-3-yl)-1H-indazole] |
| 6.48 | 5.60 | Cc1cc(-c2nn3c(c2-c2ccc4ncccc4c2)CCC3)ccc1F [Compound 47, 6-(2-(4-Fluoro-3-methylphenyl)-5,6-dihydro-4H-pyrrolo[1,2-b]pyrazol-3-yl)quinoline] |
| 6.51 | 5.75 | Fc1ccc(-c2nn3c(c2-c2ccc4nccn4c2)CCC3)cc1 [Compound 19, 6-(2-(4-Fluorophenyl)-5,6-dihydro-4H-pyrrolo[1,2-b]pyrazol-3-yl)imidazo[1,2-a]pyridine] |
| 6.61 | 6.15 | Fc1ccc(-c2nn3c(c2-c2ccc4ncnn4c2)CCC3)c(F)c1F [Compound 133, 6-(2-(2,3,4-Trifluorophenyl)-5,6-dihydro-4H-pyrrolo[1,2-b]pyrazol-3-yl)-[1,2,4]triazolo[1,5-a]pyridine] |
| 6.66 | 6.29 | Fc1ccc(-c2nn3c(c2-c2ccc4cn[nH]c4c2)CCC3)cc1Cl [Compound 143, 6-(2-(3-Chloro-4-fluorophenyl)-5,6-dihydro-4H-pyrrolo[1,2-b]pyrazol-3-yl)-1H-indazole] |
| 6.80 | 6.22 | COc1cccc(-c2nn3c(c2-c2ccc4ncnn4c2)CCC3)c1 [Compound 106, 6-(2-(3-Methoxyphenyl)-5,6-dihydro-4H-pyrrolo[1,2-b]pyrazol-3-yl)-[1,2,4]triazolo[1,5-a]pyridine] |
| 6.83 | 6.30 | Cc1cccc(-c2nn3c(c2-c2ccc4ncsc4c2)OCCC3)c1 [Compound 43, 3-(benzo[d]thiazol-6-yl)-2-(m-tolyl)-6,7-dihydro-5H-pyrazolo[5,1-b][1,3]oxazine] |
| 6.88 | 6.48 | Cc1c(F)ccc(-c2nn3c(c2-c2ccc4ncnn4c2)CCC3)c1F [Compound 173, 6-(2-(2,4-Difluoro-3-methyphenyl)-5,6-dihydro-4H-pyrrolo[1,2-b]pyrazol-3-yl)-[1,2,4]triazolo[1,5-a]pyridine] |
| 6.89 | 6.30 | Fc1ccc(-c2nn3c(c2-c2ccc4[nH]ncc4c2)CCC3)cc1 [Compound 5, 5-(2-(4-Fluorophenyl)-5,6-dihydro-4H-pyrrolo[1,2-b]pyrazol-3-yl)-1H-indazole] |
| 7.41 | 7.16 | Cc1cc(-c2nn3c(c2-c2ccc4ncnn4c2)CCC3)c(F)cc1F [Compound 185, 6-(2-(2,4-Difluoro-5-methylphenyl)-5,6-dihydro-4H-pyrrolo[1,2-b]pyrazol-3-yl)-[1,2,4]triazolo[1,5-a]pyridine] |
